Source: patent US20160264558A1, “FLUOROGENIC PROTECTING GROUP” (ISIS INNOVATION LIMITED, priority 2013, published 2016)

What was measured:
[1] = target: T1, purified human cytochrome p450 reductase (Homo sapiens, UniProt P16435); experiment: Purified reductase assay (hypoxic/normoxic incubation, HPLC); assay type: in vitro ADME; conditions: 250 nM
T1 construct: purchased Cypex
T1 sequence (P16435 1-677): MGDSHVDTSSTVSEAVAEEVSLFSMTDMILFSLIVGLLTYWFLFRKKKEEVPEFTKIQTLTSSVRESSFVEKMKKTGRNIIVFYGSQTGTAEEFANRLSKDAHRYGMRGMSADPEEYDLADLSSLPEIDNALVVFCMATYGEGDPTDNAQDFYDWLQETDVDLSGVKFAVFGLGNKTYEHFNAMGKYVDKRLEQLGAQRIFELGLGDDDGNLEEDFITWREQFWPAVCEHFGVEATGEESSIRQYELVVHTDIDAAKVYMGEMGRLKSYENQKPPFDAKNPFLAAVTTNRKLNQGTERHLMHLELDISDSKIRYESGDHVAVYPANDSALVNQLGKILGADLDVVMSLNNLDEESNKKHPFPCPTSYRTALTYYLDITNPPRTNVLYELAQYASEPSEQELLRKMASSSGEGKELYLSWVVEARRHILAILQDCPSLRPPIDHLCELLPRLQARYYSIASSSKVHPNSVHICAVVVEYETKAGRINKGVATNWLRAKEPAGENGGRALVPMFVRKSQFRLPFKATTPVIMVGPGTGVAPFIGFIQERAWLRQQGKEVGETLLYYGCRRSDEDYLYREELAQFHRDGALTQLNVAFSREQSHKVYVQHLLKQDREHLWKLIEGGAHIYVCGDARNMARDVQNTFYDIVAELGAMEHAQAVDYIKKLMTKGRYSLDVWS
Experimental: The bioreductive compound 18 (Example 1) was incubated with purified human cytochrome p450 reductase in hypoxic and normoxic conditions.
Bactosomal human NADPH-CYP reductase (Cypex, 12.7 mg/mL, 13900 nmol/min/mL) was used in combination with an NADPH-regenerating system (BD Biosciences), and the assay was carried out according to the manufacturer's protocol (BD Biosciences application note 467) at a compound 18 concentration of 250 nM. For hypoxic conditions, vials were deoxygenated by bubbling nitrogen prior to P450 addition and then transferred into a Bactron II (Shell laboratories). Samples were taken at different time points and analyzed by HPLC.

BRD4 = BRD4 (Homo sapiens, UniProt O60885); experiment: AlphaScreen assay against BRD4; assay type: binding
[2] = system: RKO (colorectal) cancer cell lines; experiment: Cell-based assay: incubation in RKO cells, HPLC of the lysate
Experimental: Compound 21 was administered to cells in culture and incubated in (a) hypoxic and (b) normoxic conditions.
RKO (colorectal) cancer cell lines were cultured in DMEM medium containing 10% FBS, penicillin (100 U/mL) and streptomycin (100 μg/mL). RKO cell line was originally obtained from the ATCC and routinely mycoplasma tested and found to be negative. Experiments were carried out with cells at 75% confluence.
Hypoxia Treatments were carried out in a Bactron II (Shell laboratories), In vivo 400 (Ruskinn), or Heracell mixed gas incubator (Fisher Scientific) depending on the level of hypoxia required.
HPLC Analysis HPLC (Waters 2695 system) comprised an RPB column (100 mm×3.2 mm, 35° C.). […] Detection used a photodiode array spectrophotometer (Waters 2996), a mass spectrometer (Waters Micromass ZQ mass spectrometer), and a UV spectrometer (Waters 296 diode array detector) scanning from 210 nm to 400 nm with a resolution set at 3.6 nm. Injections of 10 μL were made.

[3] = target: T2, Cytochrome P450 reductase (Homo sapiens, UniProt P16435); experiment: Cytochrome P450 reductase assay of compound A; assay type: in vitro ADME; conditions: anaerobic conditions, over 8 h (FIG. 8)
T2 sequence (P16435 1-677): T1 sequence (P16435 1-677)
Experimental: Compound A was subject to a Cytochrome P450 reductase assay in accordance with the procedure of Cazares-Korner (CH-01 is a hypoxia-activated prodrug that sensitizes cells to hypoxia/reoxygenation through inhibition of Chk1 and Aurora A., ACS Chem. Biol. 2013 DOI:10.1021/cb4001537).
FIG. 8 records absorbance at 0, 2, 4 and 8 hours under hypoxic (FIG. 8a) and normoxic (FIG. 8b) conditions.

[4] = Fluorimetry of compound A and its reduced counterpart B; assay type: physicochemical; conditions: 50 μM in iPrOH, excitation wavelength 515 nm, (FIG. 6)
Experimental: Compound A (Example 7) was synthesised in accordance with Sun et at (Chem. Commun., 2013, 49, 3890-3892). Fluorescence spectra of the compound, as well as its reduced counterpart compound B, was confirmed by fluorimetry.
50 μM solutions of A and B were prepared in iPrOH and fluorimetry carried out using a Perkin Elmer Luminescence Spectrometer LS 50 B with an excitation wavelength of 515 nm. Results are depicted in FIG. 6.

## Cc1noc(C)c1-c1cc(OCc2c([N+](=O)[O-])ccc3ncccc23)cc(C(O)c2ccccc2)c1 (stereo not drawn) [Compound 18, (3-(3,5-Dimethylisoxazol-4-yl)-5-((6-nitroquinolin-5-yl)methoxy)phenyl)(phenyl) methanol]
[1]; hypoxic conditions, HPLC (FIG. 2a)
  reduction/fragmentation by human CYP reductase: undergoes reduction by human CYP, including fragmentation to release compound 3
[1]; normoxic conditions, HPLC (FIG. 2b)
  reduction/fragmentation by human CYP reductase: no activation was observed
BRD4; BRD4 AlphaScreen IC50, compound 18 vs compound 3
  decrease in potency vs compound 3: 2 fold
BRD4; same AlphaScreen assay
  IC50: 749 nM

## CC(=O)Nc1ccc(OCc2c([N+](=O)[O-])ccc3ncccc23)cc1 [Compound 21, N-(4-((6-Nitroquinolin-5-yl)methoxy)phenyl)acetamide]
[2]; hypoxia, HPLC (FIG. 3a)
  UV absorbance of the compound's peak in the cell lysate: hypoxia-dependent decrease in UV absorbance
[2]; normoxia, over 24 h, HPLC (FIG. 3b)
  UV absorbance of the compound's peak in the cell lysate: continued to increase
other
  melting point: 204 to 206 °C

## N#CC(C#N)=C1C=C(/C=C/c2ccc(N=[N+]=[N-])cc2)Oc2ccccc21 [Compound A, (E)-2-(2-(4-azidostyryl)-4H-chromen-4-ylidene)malononitrile]
[3]
  reductive conversion to compound B: trace reductive conversion to compound B
[4]
  difference in fluorescence emission between A and B: ~650 fold
